The source of these data is patent publication US5795858A, “Treatment or prevention of Crohn's disease and/or ulcerative colitis” (Peptide Technology Limited, priority 1993, dated 1998).

Entries after “also recorded” stand apart in the source; their conditions may differ.

For this test, the system named is TNBS colitis. Kind of test: TNBS colitis in rats, 2 week series, once daily s.c. treatment. In kind it is in vivo, Male Sprague-Dawley rats. On the procedure:
Treatment was continued on a once daily basis for the following 14 or 28 days. On day 14 (2 week series) or 28 (4 week series), animals were weighed and anaesthetised with pentobarbital. A cardiac puncture was performed to obtain a sample of peripheral blood for the determination of total white blood cell count (WBC) using a coulter counter, and differential count. A midline laparotomy was then performed and the colon exposed and excised. The colon was then opened longitudinally and rinsed clear of […] material. The severity of colonic mucosal injury, diarrhoea, and adhesions was then scored by an observer unaware of the treatment group of the animals using the attached criteria. The length (in cm) and weight of each colonic segment was then determined to allow the determination of the colonic weight/length ratio (as an index of intramural edema and/or fibrosis). Samples of tissue were then taken for biochemical determination of tissue myeloperoxidase (MPO) activity, as an index of granulocyte accumulation using standard biochemical techniques. Samples of tissue were also taken and fixed for subsequent processing for histopathological examination. Differences between the different treatment groups were analysed using either one way analysis of variance (body weight, WBC counts, colonic weight/length ratio, […] activity) or the non-parametric equivalent Kruskall-Wallis test (semiquantitive grading of severity of mucosal injury, adhesions, or diarrhoea). Significance of differences between individual pairs of treatment groups were then assessed using post hoc Tukey's test for parametric data and Dunn's multiple comparison test for non-parametric data. […]

Consider “D--Ala--Ser--Thr--Thr--Thr--Asn--Tyr--Thr--NH2 [Peptide T]”, for which, where the note is “rat, in vivo”, the “TNBS colitis-associated changes in body weight (weight gain)” value is “increased weight gains in animals with colitis, with this becoming significant (p<0.05); also recorded: approaching significance (p values of 0.06 to 0.08)”; the “colonic myeloperoxidase activity (index of granulocyte accumulation)” value is reported as “Virtually identical patterns”; the “colonic weight/length ratio (index of colonic edema)” value is “Virtually identical patterns”; the “reducing failure to thrive/lack of weight gain” value is recorded as “comparable to prednisone”. Where the note is “rat, in vivo”, the “reducing the severity of the leukocytosis” value is recorded as “comparable to prednisone”, the “severity of colonic adhesions” value is on record as “general trend towards reduction of adhesions”, the “severity of mucosal injury (semiquantitative grading scale)” value is on record as “may have marginally reduced the severity of mucosal injury” and the “total WBC counts” value is “reductions in total WBC counts”.
As for `C[C@]12C=CC(=O)C=C1CC[C@@H]1[C@@H]2C(=O)C[C@@]2(C)[C@H]1CC[C@]2(O)C(=O)CO` [prednisone, reference compound], the “total WBC counts” value (5 mg/kg once daily s.c. for 2 weeks, vs TNBS colitis animals receiving vehicle, p 0.06-0.07, FIG. 1) is “reductions in total WBC counts”. For the same molecule, the “severity of colonic adhesions” value (5 mg/kg once daily s.c., 2 weeks, FIG. 4) was “general trend towards reduction of adhesions”. Besides, under “5 mg/kg once daily s.c., 2 weeks, initial vs final body weight, FIG. 2”, the “TNBS colitis-associated changes in body weight (weight gain)” value is listed as “increased weight gains in animals with colitis, with this becoming significant (p<0.05)”. Moreover, the “colonic weight/length ratio (index of colonic edema)” value (5 mg/kg once daily s.c., 2 weeks, pattern compared with adhesions (no significant reduction, trend towards reduction), FIG. 5) is “Virtually identical patterns”. Moreover, the “colonic myeloperoxidase activity (index of granulocyte accumulation)” value (5 mg/kg once daily s.c., 2 weeks, pattern compared with adhesions (no significant reduction, trend towards reduction), FIG. 7) is “Virtually identical patterns”.
